The structures appear in SMILES notation.

The nature of this data set: Pharmacokinetics after oral administration in dogs. The format is in vivo, beagle dogs. The protocol: After fully grinding and mixing the samples with PEG400 (the concentration in the sample solution was 5%), a small amount (about 2 ml) of 0.2% HPMC aqueous solution was added to grind into a uniform paste until there were no large particles. Under the condition of continuous grinding, 0.2% HPMC aqueous solution was added to a sufficient amount and maintained stirring (800 RPM) for 5 minutes. After sealing the sample solution container with sealing film, it was placed in the ultrasonic instrument (40 kHz) for ultrasonic for 20 minutes (to avoid the rise of ultrasonic medium water temperature during ultrasonic process, the water temperature was controlled within 40° C.); Stopped the ultrasound, mixed the suspension evenly before use (stirring for about 3 minutes), and then sampled immediately (the concentration of the sample was 6 mg/ml).
Test method: three male beagle dogs were selected and divided into test article 1 (APG-115 particles) group and test article 2 (APG-115 hydrate) group. Each group received single oral capsule administration: after the administration of test article 1, after an 8-day cleaning period, the group name was changed to test article 2, and so on.
Blood samples were collected and plasma was separated at 0.5, 1.0, 2.0, 4.0, 6.0, 10, 24, 48, 72, 96, 120, 144 and 168 hours before and after each round of administration. All plasma samples were mailed to the client for testing. The concentration of APG-115 in dog plasma was analyzed by LC-MS/Ms. The lower limit of quantification of the method was 50 ng/ml. The non compartmental model method (NCA) of the metabolic kinetic data analysis software winnonlin 8.0.0.3176 was used to analyze the plasma concentration data and calculate the pharmacokinetic parameters. See table 21 to evaluate the kinetic characteristics of APG-115 in animals after administration.

[1] abbreviates: dog, plasma, male beagle dogs, single oral administration, Mean.
Setting [2] is: male beagle dogs, single oral administration, Mean.

With `CCN1[C@@H](C(=O)NC23CCC(C(=O)O)(CC2)CC3)[C@H](c2cccc(Cl)c2F)[C@]2(C(=O)Nc3cc(Cl)ccc32)C12CCCCC2` [APG-115 hydrate], under setting [1], the area under the curve AUC(0-inf) came out at 33400 ng·h/mL, the area under the curve AUC(0-t) was 4580 ng·h/mL, the Cmax was 136 ng/mL and the MRT was determined as 31.4 h. Also, under setting [1], the Tmax was 6 h and the half-life was 346 h. Further, for the setting “dogs, oral, in words”, the exposure in dogs result is listed as “very low”. In addition, under setting [2], the CL came to 1.013 mL/min/kg and the Vd is 29.08877 L/kg.

(Values after patent US20240238251A9, “A Composition Comprising Heterocyclic Compounds, Preparation Method and Application Thereof” (SHANGHAI YASHENG PHARMACEUTICAL TECHNOLOGY CO., LTD., priority 2020, published 2024).)
